# According to PMC2862740, “Furin Targeted Drug Delivery for Treatment of Rhabdomyosarcoma in a Mouse Model” (PLoS ONE, 2010):
# “Also recorded” adds a separate entry of the source. Positions of bridges follow the written chain, without caps; N, C: chain ends. No end group written: not given here.
# B1: RMS-P3/RR peptide (peptide)
# peptide: CMGTINTRTRRC
# modifications: not fully specified (bridges); also: cyclic peptide, mode of cyclisation not given here
# Legend:
# RD xenograft tumors = assay: phage homing in RD xenografts; assay type: in vivo, mouse; conditions: for phage binding to tumors versus any other organ: RD (or Rh4) xenografts, One-way ANOVA and Tukey-Kramer HSD
# Protocol: Figure 1 Validation of selected phages binding on RMS cells in vivo and in vitro. (A) Quantification of binding of single phage clones to different cell lines. Six phages selected from in vitro and in vivo screenings were validated individually in binding assays to three RMS cell lines (embryonal RMS: RD; alveolar RMS: Rh30 and Rh4) as well as to normal myoblasts (SkMC-c) and fibroblast cells (MRC-5). Phage clones are ordered according to the frequency of occurrence. Binding was calculated over non-recombinant T7, depicted are mean values ± SD of three independent experiments. (B) RMS-P3 and RMS-P6 phage distribution in RD mouse xenografts. Homing of phages to tumor was compared to control organs. Binding was normalized over phage T7 and tissue weight. Mean values ± SD of four independent experiments are shown. Numerical values for tumor to organ ratios are indicated above the bars. (C) Validation of RMS-P3 peptide sequence by competition of phage binding. 10^6 RD cells were incubated for 30 min with increasing concentrations of RMS-P3 peptide ([…]) or control peptide ([…]). Then, phages (10^9 pfu) were added for 1 h. Phage binding was normalized over non-recombinant T7. Data are presented as percentage of maximal phage binding obtained in the absence of synthetic peptide. Error bars indicate mean ± SD from three independent experiments. […] TEXT PRINTED IN THE PICTURE: (B) RMS-P6: tumor: 1; muscle: 1/6; kidney: 1/8; brain: 1/28; skin: 1/12 | (B) RMS-P3: tumor: 1; muscle: 1/24; kidney: 1/15; brain: 1/12; skin: 1/10 DOUBTS OF THE COPYIST ABOUT THIS PICTURE: Panel B: the picture prints no measure for the numbers over the bars. Each tissue name was assigned from the bar fill and the order of the printed key. / RMS-P6, brain: 1/28, the last digit may be 8 or 6 (small print)
# Phage (10^10 pfu) from in vitro biopannings were tail vein injected into mice bearing size-matched RMS tumors (500 mm^3) as described in [57].
# U87MG cells = assay: phage binding to glioblastoma cells; assay type: cell-based; conditions: compared to myoblasts and fibroblasts; p<0.05
# Protocol: (§1) Supplementary file pone.0010445.s001.tif: Figure S1 Phage selection and validation on RMS cells in vivo and in vitro. (A) Biopanning on RD cells in vitro after negative selection on myoblasts (panning I) and (B) fibroblasts (panning II). Enrichment was calculated over non-recombinant phage T7. (C) In vivo selection in Rh4 xenografts. Phages from in vitro selection before enrichment were pooled and used for in vivo selection in Rh4 xenografts. Phages were injected in the tail vein and after 10 min circulation unbound phages were washed by perfusion. Phage binding to tumors and control organs was calculated over non-recombinant phage T7. (D) RMS-P3 and RMS-P6 phage distribution in Rh4 xenografts. Homing of phages in mouse xenografts bearing Rh4 tumors was determined and compared to control organs. Binding was normalized over phage T7 and tissue weight. Mean values of three independent experiments are shown. Numerical values for tumor to organ ratios are indicated above the bars. (E) Quantification of binding of RMS-P3 phage to a panel of tumor cell lines: RMS (RD, Rh30, Rh4), breast tumor (MDA-MB 231), glioblastoma (U87MG), melanoma (A365); and normal myoblasts (SkMC-c) and fibroblast cells (MRC-5). Mean values ± SD of three independent experiments are depicted. (0.55 MB TIF) Click here for additional data file.
# A365 cells = assay: phage binding to melanoma cells; assay type: cell-based; conditions: compared to myoblasts and fibroblasts; p<0.05
# Protocol: as §1
# Rh4 xenograft tumors = assay: phage homing in Rh4 xenografts; assay type: in vivo, mouse; conditions: aRMS (Rh4) xenograft
# Protocol: as §1
# MDA-MB 231 cells = assay: phage binding to breast carcinoma cells; assay type: cell-based; conditions: compared to myoblasts and fibroblasts; p<0.05
# Protocol: as §1
# membrane-bound furin = assay: peptide affinity chromatography, RD-FUR lysate; assay type: binding; conditions: western blot, 97kDa
# Protocol: (§2) Figure 5 RMS-P3/RR peptide binds directly to furin and inhibits its activity. Lysates of RD-FUR cells (approximately 1 mg of total protein, upper rows) or purified recombinant furin (250 ng; lower rows) were loaded on a RMS-P3/RR column (A) or on the control peptide column RMS-P3/AA (B). The columns were washed 10 times to remove unbound furin. The loaded RMS-P3/RR-column was eluted first with control peptide RMS-P3/AA, then with peptide RMS-P3/RR. The RMS-P3/AA column was eluted first with RMS-P3/RR and subsequently cross-eluted with the control peptide RMS-P3/AA. The presence of furin in aliquots from the columns (1) after binding, (2) flow through, (3) last wash, (4) control elution and (5) competitive elution with RMS-P3/RR (in A) and […] (in B), respectively, was detected by western blotting. (C) Fixed amounts of recombinant furin (3.3U) were incubated with increasing concentrations of RMS-P3/RR peptide or with control peptide (RMS-P3/AA). Furin activity was measured with the fluorogenic substrate Boc-RRVR-AMC at excitation 370 nm/emission 460 nm. The results of three independent experiments ± SD are shown.
# (§3) RMS-P3/RR or control peptide RMS-P3/AA were dissolved in 0.2 M phosphate buffer pH 7.2 to 1 mg/ml and covalently linked to NHS-activated sepharose matrix SpinTrapTM (GE Healthcare, Amersham Biosciences, Switzerland). […]
# recombinant human furin [1] = assay: furin activity, fluorogenic substrate Boc-RRVR-AMC; assay type: biochemical
# Protocol: The enzymatic activity of furin was determined by the cleavage of the fluorogenic substrate Boc-RRVR-AMC (Alexis biochemicals) in presence or absence of peptides. Human recombinant furin (3.3U for reaction; Alexis biochemicals) was preincubated for 15 minutes at RT with the peptide RMS-P3/RR or the peptide RMS-P3/AA as negative control at increasing concentrations. For each assay, the same concentration of substrate (100 µM) was added to a solution containing 50 mM Tris HCl with 1 mM CaCl2 (pH 7) in a total volume of 100 µl. The reaction was followed for 1h while measuring the fluorescence every 10 minutes in a spectrofluorometer at excitation 370 nm/emission 460 nm.
# RD cells = assay: phage binding to RD cells; assay type: cell-based
# Protocol: (§4) Figure 1 Validation of selected phages binding on RMS cells in vivo and in vitro. (A) Quantification of binding of single phage clones to different cell lines. Six phages selected from in vitro and in vivo screenings were validated individually in binding assays to three RMS cell lines (embryonal RMS: RD; alveolar RMS: Rh30 and Rh4) as well as to normal myoblasts (SkMC-c) and fibroblast cells (MRC-5). Phage clones are ordered according to the frequency of occurrence. Binding was calculated over non-recombinant T7, depicted are mean values ± SD of three independent experiments. (B) RMS-P3 and RMS-P6 phage distribution in RD mouse xenografts. Homing of phages to tumor was compared to control organs. Binding was normalized over phage T7 and tissue weight. Mean values ± SD of four independent experiments are shown. Numerical values for tumor to organ ratios are indicated above the bars. (C) Validation of RMS-P3 peptide sequence by competition of phage binding. 10^6 RD cells were incubated for 30 min with increasing concentrations of RMS-P3 peptide ([…]) or control peptide ([…]). Then, phages (10^9 pfu) were added for 1 h. Phage binding was normalized over non-recombinant T7. Data are presented as percentage of maximal phage binding obtained in the absence of synthetic peptide. Error bars indicate mean ± SD from three independent experiments. […]
# Figure 3 Identification of the receptor for RMS-P3. […] Phage binding was quantified over non-recombinant T7 and compared to the binding of wild type phage RMS-P3. […] After tail vein injection of both FITC-RMS-P3/RR or control peptide RMS-P3/AA and circulation of 10 min, mice were perfused, tumors and control organs were dissected and FITC-peptide distribution (green) was evaluated in cryosections under fluorescence microscopy. […] (C) Expression of proprotein convertases (PCs) measured by microarray profiling of 9 RMS cell lines and 30 RMS biopsy samples. […] Immature membrane-bound furin was detected at 103 kD, mature furin at 97 kD. […]
# recombinant human furin [2] = assay: peptide affinity chromatography, recombinant furin; assay type: binding; conditions: recombinant human furin without membrane-domain (81 kD), overnight at 4°C, western blot
# Protocol: as §2, §3
# [3] = test system: RMS cells (RD, Rh4, Rh30); assay: phage binding to RMS cell lines versus normal cells; assay type: cell-based; conditions: control phage
# Protocol: as §4
# Rh4 cells = assay: phage binding to Rh4 cells; assay type: cell-based; conditions: three independent experiments
# Protocol: as §4
# Rh30 cells = assay: phage binding to Rh30 cells; assay type: cell-based; conditions: three independent experiments
# Protocol: as §4
# [4] = test system: RD xenograft tumors and control organs; assay: FITC-peptide distribution in xenograft mice; assay type: in vivo, mouse; conditions: RD xenografts, i.v., 10 min circulation
# Protocol: Figure 2 FITC-labeled RMS-P3 binding in vitro and distribution in vivo. (A) Visualization of FITC-RMS-P3 peptide binding in normal and cancer cells in vitro. Cultured myoblasts (SkMC-c), fibroblasts (MRC-5), RMS cells (RD) and breast carcinoma cells (MDA-MB 231) were incubated with 100 nM FITC-RMS-P3 peptide for 1 h at 37°C. Fluorescence microscopy of fixed cells is shown. (B) Living RD cells were incubated with FITC-RMS-P3 peptide, subsequently fixed and stained with giantin (red). Colocalization is shown in the merged picture by yellow. Blue staining (DAPI) indicates the nuclei. Magnifications: 40x, scale bars: 20 µm. (C) Distribution of FITC-RMS-P3 and control peptide FITC-RMS-Pctrl in mice xenografts of RD cells. FITC-RMS-P3 or control FITC-RMS-Pctrl peptide were injected i.v. and after 10 minutes of circulation, mice were perfused and tumor and control organs were collected. Cryosections were double-labeled with mouse endothelial vessels markers CD31 and MECA-32 (red). Nuclear staining by DAPI is shown in blue. Magnifications: 40x, scale bars: 20 µm.
# Figure 3 Identification of the receptor for RMS-P3. (A) Alanine-scan of the RMS-P3 sequence. RMS-P3 was mutated by replacing each amino acid residue with alanine (codon GCT). All phage mutants were tested individually for binding to RD cells in vitro. Mutated residues are indicated in bold. Phage binding was quantified over non-recombinant T7 and compared to the binding of wild type phage RMS-P3. Depicted are mean values ± SD of three independent experiments. […] (B) FITC-RMS-P3/RR and FITC-RMS-P3/AA distribution in RD xenograft mice. After tail vein injection of both FITC-RMS-P3/RR or control peptide RMS-P3/AA and circulation of 10 min, mice were perfused, tumors and control organs were dissected and FITC-peptide distribution (green) was evaluated in cryosections under fluorescence microscopy. Blood endothelial stainings (CD31 and MECA32) are shown in red, nuclear staining in blue (DAPI). Magnification: 20x, scale bar 50 µm. (C) Expression of proprotein convertases (PCs) measured by microarray profiling of 9 RMS cell lines and 30 RMS biopsy samples. Expression of PCs recognizing the cleavage site R(X)(R/K)(R/K) were considered. Each cell line or biopsy is represented by one data point. (D) Furin expression in different cell lines. Normal myoblasts (SkMC-c), fibroblasts (MRC-5), RMS cell lines (RD, Rh4, Rh30), furin-deficient colorectal carcinoma cells (LoVo) and furin-positive breast carcinoma cells (MBA-MB 231) were tested for furin expression by qRT-PCR (upper graph). […] Western blot (lower panels). Immature membrane-bound furin was detected at 103 kD, mature furin at 97 kD. PCNA was used as loading control.
# Figure 6 FITC-RMS-P3/RR and FITC-RMS-P3/AA distribution in mice bearing RD xenografts. Peptides were injected i.v. and after circulation the mice were perfused, tumors and control organs were removed and peptide distribution was evaluated on cryosections by fluorescence microscopy. Depicted are overlay images (B, upper left panel) and single channel pictures. FITC-peptide stainings (green), either furin or endothelial stainings (CD31, MECA32) in red and cell nuclei in blue (DAPI) are shown. Magnification: 40x, scale bars 50 µm.
# Supplementary file pone.0010445.s002.tif: Figure S2 Subcellular localization of FITC-RMS-P3 peptide. (A, B) FITC-RMS-P3/RR cell surface and intracellular localization. RD cells were incubated with 100 nM FITC-RMS-P3 peptide in vitro for 30 min at 4°C (A) or 37°C (B), respectively. Fixed cells were stained with undiluted 5.1H11 hybridoma supernatant against the human muscle-specific cell surface antigen N-CAM (red). A secondary rabbit anti-mouse Cy3 antibody (1∶300, Invitrogen) was used for detection. […] Cell nuclei were visualized with DAPI. Nuclei are indicated in grey. Magnification: 63x, scale bars: 20 µm. […]
# [5] = target: recombinant human furin without membrane-domain (81 kD) (human) (UniProt P09958)
molecule,measurement,setting,value
CMGTINTRTKKC (disulfide 1-12 (inferred)) [phage RMS-P3],phage binding to tumors versus any other organ,RD xenograft tumors,bound significantly better to tumors than to any other organ
same,tumor/muscle ratio,"RD xenograft tumors; phage, eRMS (RD) xenograft",24 fold
same,phage binding to glioblastoma cells,U87MG cells,significant binding; also recorded: very good binding
same,phage binding to melanoma cells,A365 cells,significant binding; also recorded: very good binding
same,tumor/muscle ratio,Rh4 xenograft tumors,24 fold
same,phage binding to breast carcinoma cells,MDA-MB 231 cells,significant binding; also recorded: very good binding
CMGTINTRTRRC (disulfide 1-12 (inferred)) [RMS-P3/RR],furin in competitive eluate from peptide column,membrane-bound furin,competitive eluates contained detectable amounts of membrane-bound furin
same,furin activity remaining,"recombinant human furin [1]; 100 µM peptide, % of the control, furin 3.3U, 15 min preincubation RT, substrate 100 µM, 50 mM Tris HCl, 1 mM CaCl2, pH 7, three independent experiments",14 % of the control
same,effect on furin activity,recombinant human furin [1]; increasing concentrations,concentration dependent decrease of furin activity
same,phage binding to RD cells compared to RMS-P3,"RD cells; both Lys replaced by Arg, One-way ANOVA, Tukey Kramer HSD, p<0.05 vs all other alanine mutants",no significant difference in binding to RD cells
same,binding of recombinant furin to peptide column,recombinant human furin [2],detected a furin band in the specific eluate
"CSPNNTRRPNKC (disulfide 1-12 (inferred)) [phage RMS-Pctrl, phage displaying […], arose spontaneously during the in vitro screening; negative control]",binding to tumor cells,[3],no binding to tumor cells
CMGTTNTRTKKC (disulfide 1-12 (inferred)) [RMS-P6],phage binding compared to non-recombinant phage T7,Rh4 cells,230 fold
same,phage binding to tumors versus any other organ,RD xenograft tumors,bound significantly better to tumors than to any other organ
same,phage binding compared to non-recombinant phage T7,"RD cells; RD cells, three independent experiments",1270 fold
same,phage binding compared to non-recombinant phage T7,Rh30 cells,120 fold
CMGTINTATAAC (disulfide 1-12 (inferred)) [RMS-P3/AA],furin in competitive eluate from peptide column,membrane-bound furin,not the case
same,peptide uptake in kidney,[4],found in the kidneys
same,peptide accumulation in tumor,[4]; cryosections,did not accumulate in the tumor; also recorded: No fluorescence was detectable
same,decrease in phage binding compared to RMS-P3,"RD cells; alanine-scan, RD cells, three independent experiments, p<0.05",70 fold
same,binding of recombinant furin to peptide column,recombinant human furin [2],did not bind recombinant furin
B1,furin activity (cleavage of the fluorogenic substrate Boc-RRVR-AMC by 3.3U recombinant furin) with increasing concentrations of RMS-P3/RR (10-100 µM); activity left at 100 µM (% of the control),[5],14
